Measurements from patent US12535483B2, “Norovirus-binding peptide” (Kao Corporation, priority 2019, dated 2026).

What was measured:
GII.3 VLP = experiment: KD value by bio-layer interferometry (BLI, BLItz), peptide on SA chip, GII.3 VLP; format: binding, norovirus GII.3 TCH strain; settings: for Kd: GII.3 VLP 1 and 0.1 mg/mL, 100 μM peptide bound to SA chip, KD calculated from Ka and Kd values; for ka / kd: GII.3 VLP; for ka: association 90 sec; for kd: dissociation in PBS 60 sec
Procedure: (§1) <Calculation of KD Value by Bio-Layer Interferometry: BLI Method>
(§2) The apparatus used was BLItz™ (manufactured by ForteBio). The tip of SA chip (manufactured by ForteBio) was kept in contact with purified water for 1 minute for hydration and was then kept in contact with a 1% BSA aqueous solution for 1 hour for blocking. The SA chip subjected to blocking treatment was set to the measuring unit of the BLItz™ main body, and measurement was performed according to the program shown in Table 14. The peptides of SEQ ID NOs: 43, 48, 52, 59, 131, 143, 150, 154, 155, 156, 163, and 172 were used, and the concentration was adjusted to 100 µM. The concentrations of each of the GII.3 and GII.17 VLPs were adjusted to 1 and 0.1 mg/mL. The measurement data were analyzed using the attached software, and the KD value was calculated based on the Ka and Kd values.

GII.17 VLP = experiment: KD value by bio-layer interferometry (BLI, BLItz), peptide on SA chip, GII.17 VLP; format: binding, norovirus GII.17 Saitama strain; settings: for Kd: GII.17 VLP 1 and 0.1 mg/mL, 100 μM peptide bound to SA chip, KD calculated from Ka and Kd values; for ka / kd: GII.17 VLP; for ka: association 90 sec; for kd: dissociation in PBS 60 sec
Procedure: as §1, §2

ICSSWFPSVH [No. 48]
Kd (GII.3 VLP): 0.0303 µM
ka (GII.3 VLP): 810000 M⁻¹ s⁻¹
kd (GII.3 VLP): 0.0246 s⁻¹
Kd (GII.17 VLP): 0.0766 µM
ka (GII.17 VLP): 1.28e+06 M⁻¹ s⁻¹
kd (GII.17 VLP): 0.0978 s⁻¹

VVGFGRRSLF [No. 156]
Kd (GII.3 VLP): 1.06 µM
ka (GII.3 VLP): 67300 M⁻¹ s⁻¹
kd (GII.3 VLP): 0.0713 s⁻¹
Kd (GII.17 VLP): 234 µM
ka (GII.17 VLP): 398 M⁻¹ s⁻¹
kd (GII.17 VLP): 0.0931 s⁻¹

NFRVPIRFTH [No. 131]
Kd (GII.3 VLP): 157 µM
ka (GII.3 VLP): 1660 M⁻¹ s⁻¹
kd (GII.3 VLP): 0.262 s⁻¹

VELFLLTSSC [No. 155]
Kd (GII.3 VLP): 803 µM
ka (GII.3 VLP): 115 M⁻¹ s⁻¹
kd (GII.3 VLP): 0.0926 s⁻¹

KYRATICHTV [No. 52]
Kd (GII.3 VLP): 0.0138 µM
ka (GII.3 VLP): 747000 M⁻¹ s⁻¹
kd (GII.3 VLP): 0.0103 s⁻¹
Kd (GII.17 VLP): 0.0179 µM
ka (GII.17 VLP): 1.29e+06 M⁻¹ s⁻¹
kd (GII.17 VLP): 0.0232 s⁻¹

GCVGDLYCSA [No. 172]
Kd (GII.3 VLP): 69.3 µM
ka (GII.3 VLP): 189 M⁻¹ s⁻¹
kd (GII.3 VLP): 0.0131 s⁻¹

YVVASKSNRL [No. 143]
Kd (GII.3 VLP): 0.0135 µM
ka (GII.3 VLP): 325000 M⁻¹ s⁻¹
kd (GII.3 VLP): 0.0044 s⁻¹

YRRSKSEIFV [No. 59]
Kd (GII.3 VLP): 0.00887 µM
ka (GII.3 VLP): 805000 M⁻¹ s⁻¹
kd (GII.3 VLP): 0.00714 s⁻¹
Kd (GII.17 VLP): 0.383 µM
ka (GII.17 VLP): 134000 M⁻¹ s⁻¹
kd (GII.17 VLP): 0.0511 s⁻¹

SVMVTRSLFG [No. 163]
Kd (GII.3 VLP): 0.00766 µM
ka (GII.3 VLP): 1.03e+06 M⁻¹ s⁻¹
kd (GII.3 VLP): 0.00786 s⁻¹
ka (GII.17 VLP): 110000 M⁻¹ s⁻¹
kd (GII.17 VLP): 0.0185 s⁻¹

VCVDNDISMS [No. 150]
Kd (GII.3 VLP): 0.437 µM
ka (GII.3 VLP): 27000 M⁻¹ s⁻¹
kd (GII.3 VLP): 0.0118 s⁻¹
Kd (GII.17 VLP): 2510 µM
ka (GII.17 VLP): 102 M⁻¹ s⁻¹
kd (GII.17 VLP): 0.255 s⁻¹

ECMGRRWMSS [No. 154]
Kd (GII.3 VLP): 0.123 µM
ka (GII.3 VLP): 141000 M⁻¹ s⁻¹
kd (GII.3 VLP): 0.0173 s⁻¹
Kd (GII.17 VLP): 0.628 µM
ka (GII.17 VLP): 49500 M⁻¹ s⁻¹
kd (GII.17 VLP): 0.00205 s⁻¹

YVIRNSDRHN [No. 43]
Kd (GII.3 VLP): 0.0672 µM
ka (GII.3 VLP): 1.18e+06 M⁻¹ s⁻¹
kd (GII.3 VLP): 0.0793 s⁻¹
Kd (GII.17 VLP): 234 µM
ka (GII.17 VLP): 822 M⁻¹ s⁻¹
kd (GII.17 VLP): 0.192 s⁻¹
